The test system of one test is P388. Conditions: Kaneko et al., J. Med Chem. 1985; cited from earlier work.
A further test concerns calf thymus DNA. The experiment in a line: Thermal denaturation with calf thymus DNA. The test is classed as binding. Conditions: for ΔTm (elevation of helix melting temperature of CT DNA): 1:5 molar ratio (PBD):(DNA), incubation for 18 h at 37° C.; for Induced ΔTm after Incubation at 37° C. for 0 h / Induced ΔTm after Incubation at 37° C. for 18 h: [PBD]:[DNA] molar ratio 1:5. The protocol: (§1) Biological Activity: In vitro anticancer activity studies were carried out at National Caner Institute (USA) and the thermal denaturation of DNA was performed at School of Life Science, University of Hyderabad.
(§2) Table 1: Thermal denaturation with calf thymus DNA^a, at a [PBD]:[DNA]molar ratio of 1:5^b and in vitro one dose primary anticancer assay^c in the NCI-H460, MCF 7 and SF-268 for Vi, wherein R is H; R1 is H, OH or OAc; and n is 3 to 5.

The test system of the next test is MCF 7 (Breast). The test is described as follows: In vitro one dose primary anticancer assay (NCI), MCF 7. The format is cell-based, human. The protocol:
as §1, §2
(§3) In this assay, for a 1:5 molar ratio of (PBD):(DNA), one of this mixed imine-amide PBD dimer VI, where n is 5, elevates the helix melting temperature of CT DNA remarkably to 17° C. after incubation for 18 h at 37° C.

In another test the test system is SF-268 (CNS). The experiment in a line: In vitro one dose primary anticancer assay (NCI), SF-268. The format is cell-based, human. As for the experimental part:
as §1, §2, §3

The subject of the next test is NCI-H460 (Lung). The experiment in a line: In vitro one dose primary anticancer assay (NCI), NCI-H460. The test is classed as cell-based, human. As for the experimental part: as §1, §2, §3

The values that follow come from patent US6362331B1, “Process for the preparation of antitumor agents” (priority 2001, dated 2002).

Regarding `COc1cc2c(cc1OC(C)=O)NC(=O)C1C[C@H](OC(C)=O)CN1C2=O` (stereo partly drawn) [(7-methoxy-2-methylcarbonyloxy-5,11-dioxo-(2S)-2,3,5,10,11,11a-hexahydro-1H-pyrrolo[2,1-c][1,4]-benzodiazepine-5,11-dione-8-yl acetate], in the test on P388, the “in vivo antitumour activity” value was “significant in vivo antitumour activity”.
As for `COc1cc2c(cc1OCCCCCOc1cc3c(cc1OC)NC(=O)[C@H]1CCCN1C3=O)N=C[C@@H]1CCCN1C2=O` [VI (n is 5), 8-methoxy-7-3-[7-methoxy-5-oxo-(11aS)-2,3,4,11a-tetrahydro-1H-pyrrolo[2,1-c][1,4]-benzodiazepine-8-yloxy]pentyloxy-(11aR)-2,3,5,10,11a hexahydro-1H -pyrrolo[2,1-c][1,4]benzodiazepine-5,11-dione], in the test with calf thymus DNA, the “ΔTm (elevation of helix melting temperature of CT DNA)” value amounted to 17 °C, the “Induced ΔTm after Incubation at 37° C. for 0 h” value (shortened to “Induced ΔTm … for 0 h”) is on record as 14.0 C and the “Induced ΔTm after Incubation at 37° C. for 18 h” value (“Induced ΔTm … for 18 h” for short) is 17.0 C. The “Growth Percentage (Breast) MCF 7” value in the test with MCF 7 (Breast) was 7. Moreover, in the test with SF-268 (CNS), the “Growth Percentage (CNS) SF-268” value is recorded as −21. In addition, the “Growth Percentage (Lung) NCI-H460” value in the test on NCI-H460 (Lung) is reported as −39.
As to `COc1cc2c(cc1OCCCOc1cc3c(cc1OC)NC(=O)[C@H]1CCCN1C3=O)N=C[C@@H]1CCCN1C2=O` [VI (n is 3)], in the test on calf thymus DNA, the “Induced ΔTm … for 0 h” value was 6.5 C and the “Induced ΔTm … for 18 h” value is given as 7.0 C. In the test with MCF 7 (Breast), the “Growth Percentage (Breast) MCF 7” value is 10. Also, in the test with SF-268 (CNS), the “Growth Percentage (CNS) SF-268” value is 11. Further, the “Growth Percentage (Lung) NCI-H460” value in the test on NCI-H460 (Lung) was found to be 4.
On to `COc1cc2c(cc1O)N=CC1CCCN1C2=O` (stereo not drawn) [DC-81, reference compound], for which, in the test with calf thymus DNA, the “ΔTm (elevation of helix melting temperature of CT DNA)” value was 0.7 °C, the “Induced ΔTm … for 0 h” value worked out at 0.3 C and the “Induced ΔTm … for 18 h” value worked out at 0.7 C.
For the compound `COc1cc2c(cc1OCCCOc1cc3c(cc1OC)C(=O)N1CCC[C@H]1C=N3)N=C[C@@H]1CCCN1C2=O` [DSB-120, reference compound], in the test with calf thymus DNA, the “Induced ΔTm … for 0 h” value amounted to 10.2 C.
Turning to `COc1cc2c(cc1OCCCCOc1cc3c(cc1OC)NC(=O)[C@H]1CCCN1C3=O)N=C[C@@H]1CCCN1C2=O` [VI (n is 4)], in the test with calf thymus DNA, the “Induced ΔTm … for 0 h” value is given as 5.0 C and the “Induced ΔTm … for 18 h” value is recorded as 8.5 C. Also, the “Growth Percentage (Breast) MCF 7” value with MCF 7 (Breast) is listed as −41. Further, the “Growth Percentage (CNS) SF-268” value in the test on SF-268 (CNS) is recorded as −81. Besides, in the test on NCI-H460 (Lung), the “Growth Percentage (Lung) NCI-H460” value was −16.
